These molecules were tested on Mycobacterium tuberculosis (assay: Resistance factor, ratio of MIC for antimycobacterial activity against Mycobacterium tuberculosis H37Rv over expressing InhA to MIC for antimycobacterial activity against Mycobacterium tuberculosis H37Rv transfected with pMV261 empty vector).
Type: functional

Q: For `CC(C)[C@H]1OC(=O)[C@H](C)[C@H](O)[C@H](Cc2cccnc2)NC(=O)[C@@H](NC(=O)c2ncccc2O)[C@@H](C)OC1=O`, which Ratio is on record?
A: Its Ratio is 8.

Q: `CC[C@H]1OC(=O)[C@H](C)[C@H](O)[C@H](Cc2cccnc2)NC(=O)[C@@H](NC(=O)c2ncccc2O)[C@@H](C)OC1=O` was tested. Which Ratio did it give?
A: The Ratio was over 4.

Q: Which Ratio does the source give for `C[C@H]1OC(=O)[C@@H](Cc2ccccc2)OC(=O)[C@H](C)[C@H](O)[C@H](Cc2cccnc2)NC(=O)[C@H]1NC(=O)c1ncccc1O` here?
A: Its Ratio is over 4.

Q: For `CC[C@H](C)[C@H]1OC(=O)[C@H](C)[C@H](O)[C@H](Cc2cccnc2)NC(=O)[C@@H](NC(=O)c2ncccc2O)[C@@H](C)OC1=O`, which Ratio is on record?
A: Its Ratio is 1.

Q: `NNC(=O)c1ccncc1` [ISONIAZID] was tested. Which Ratio did it give?
A: The Ratio was 31.

Source: ChEMBL document CHEMBL4376876 (J Med Chem, 2020)
